{"source": "paper PMC9395504", "about": "(Investigational New Drugs, 2022)", "key": {"[1]": {"assay": "Dose escalation (3+3+3): dose-limiting toxicity and maximum tolerated dose", "format": "in vivo, human", "conditions": "once daily, seven days of a 21-day cycle", "experimental": "Trametinib, 2 mg once daily (both Arms), and dabrafenib, 150 mg twice daily (Arm 1 only), were subsequently started on day 8, cycle 1 (Fig. 1). Treatment was administered continuously in consecutive treatment cycles until disease progression, intolerability, or withdrawal of consent.\nWe defined the dose-limiting toxicity (DLT) period as the first 28 days of each dose-escalation cohort’s treatment cycle (DLT window). […] Non-hematologic DLTs included grade ≥3 nausea, vomiting, or diarrhea enduring >48 hours despite standard medical management, grade 3 fatigue persisting >7 days or grade 4 fatigue, any grade ≥3 metabolic laboratory abnormalities that are not controlled within 48 hours by standard medical management."}, "[2]": {"assay": "Plasma pharmacokinetics of AMG 232 at steady state (LC-MS/MS, noncompartmental)", "format": "in vivo, human", "conditions": "for AUC(0-t): read-out: AUC24hr", "text": "The following PK parameters were estimated: maximum observed plasma concentration (Cmax), time to reach Cmax (tmax), area-under-the-plasma concentration-time curve (AUC), terminal phase half-life (t1/2,z), and apparent total body clearance (CL/F). We performed noncompartmental analyses for PK parameter estimation using Phoenix® WinNonlin® version 6.4 or later software (Certara™, Princeton, NJ). […] We prepared descriptive statistics, tables, and graphs using Phoenix® WinNonlin® and Prism version 9.1.1 (GraphPad Software, San Diego, CA)."}, "[3]": {"tested_on": "TP53-WT cancer xenograft models", "conditions": "daily oral administration; cited from earlier work"}, "[4]": {"tested_on": "TP53-WT patient-derived melanoma xenografts", "conditions": "50 mg/kg, alone or combined with dabrafenib and trametinib; cited from earlier work"}, "[5]": {"tested_on": "TP53-WT melanoma cell lines", "set-up": "method as in PMID 24810962", "conditions": "combined with inhibitors of PI3K or MAPK signaling pathway; cited from earlier work"}, "[6]": {"tested_on": "serum MIC-1 protein", "conditions": "single-agent AMG 232, cited from earlier work"}, "[7]": {"conditions": "human, plasma, oral, 120 mg, Cycle 1 Day 7, AMG 232 monotherapy, Arm 2, 120 mg, geometric mean (CV%)"}, "[8]": {"conditions": "human, plasma, oral, 120 mg, Cycle 2 Day 7, co-administered with T + D, Arm 1, 120 mg, geometric mean (CV%)"}, "[9]": {"conditions": "human, plasma, oral, 120 mg, Cycle 2 Day 7, co-administered with T, Arm 2, 120 mg, geometric mean (CV%)"}, "[10]": {"conditions": "human, plasma, oral, 180 mg, Cycle 1 Day 7, AMG 232 monotherapy, Arm 1, 180 mg, geometric mean (CV%)"}, "[11]": {"conditions": "human, plasma, oral, 180 mg, Cycle 2 Day 7, co-administered with T + D, Arm 1, 180 mg, geometric mean (CV%)"}, "[12]": {"conditions": "human, plasma, oral, 240 mg, Cycle 1 Day 7, AMG 232 monotherapy, Arm 2, 240 mg, geometric mean (CV%)"}, "[13]": {"conditions": "human, plasma, oral, 240 mg, Cycle 2 Day 7, co-administered with T, Arm 2, 240 mg, geometric mean, n = 2"}}, "note": "Entries after “also recorded” stand apart in the source; their conditions may differ. Like-named read-outs stand apart in the source and are kept apart here. Marks after values point to notes of the source that are not given here."}
{"compound": "CC(C)[C@@H](CS(=O)(=O)C(C)C)N1C(=O)[C@@](C)(CC(=O)O)C[C@H](c2cccc(Cl)c2)[C@H]1c1ccc(Cl)cc1", "note": "[AMG 232]", "values": [{"measurement": "MTD of AMG 232 combined with dabrafenib plus trametinib", "setting": "[1]; Arm 1", "value": 120, "unit": "mg"}, {"measurement": "MTD of AMG 232 combined with trametinib", "setting": "[1]; Arm 2", "value": 120, "unit": "mg"}, {"measurement": "AUC24hr", "setting": "[2]; Cycle 1 Day 7, AMG 232 monotherapy, Arm 1, 120 mg, geometric mean (CV%)", "value": "5140 (59.4%) n = 4 hr•ng/mL"}, {"measurement": "AUC24hr", "setting": "[2]; Cycle 2 Day 7, co-administered with T, Arm 2, 180 mg, geometric mean (CV%)", "value": "9410 (107.0%)^a n = 5 hr•ng/mL"}, {"measurement": "Effect of trametinib ± dabrafenib on AMG 232 PK exposures (Cmax, AUC24hr)", "setting": "[2]; cycle 2 day 7 vs cycle 1 day 7, Wilcoxon matched-pairs signed-rank test p>0.05", "value": "not significant; also recorded: not significantly altered"}, {"measurement": "Cmax", "setting": "[2]; human, plasma, oral, 120 mg, Cycle 1 Day 7, AMG 232 monotherapy, Arm 1, 120 mg, geometric mean (CV%)", "value": 491, "unit": "ng/mL"}, {"measurement": "Cmax", "setting": "[2]; [7]", "value": 914, "unit": "ng/mL"}, {"measurement": "AUC(0-t)", "setting": "[2]; [7]", "value": 9810, "unit": "ng·h/mL"}, {"measurement": "Cmax", "setting": "[2]; [8]", "value": 392, "unit": "ng/mL"}, {"measurement": "AUC(0-t)", "setting": "[2]; [8]", "value": 3140, "unit": "ng·h/mL"}, {"measurement": "Cmax", "setting": "[2]; [9]", "value": 630, "unit": "ng/mL"}, {"measurement": "AUC(0-t)", "setting": "[2]; [9]", "value": 6740, "unit": "ng·h/mL"}, {"measurement": "Cmax", "setting": "[2]; [10]", "value": 847, "unit": "ng/mL"}, {"measurement": "AUC(0-t)", "setting": "[2]; [10]", "value": 5890, "unit": "ng·h/mL"}, {"measurement": "Cmax", "setting": "[2]; human, plasma, oral, 180 mg, Cycle 1 Day 7, AMG 232 monotherapy, Arm 2, 180 mg, geometric mean (CV%)", "value": 1250, "unit": "ng/mL"}, {"measurement": "Cmax", "setting": "[2]; [11]", "value": 647, "unit": "ng/mL"}, {"measurement": "AUC(0-t)", "setting": "[2]; [11]", "value": 4750, "unit": "ng·h/mL"}, {"measurement": "Cmax", "setting": "[2]; human, plasma, oral, 180 mg, Cycle 2 Day 7, co-administered with T, Arm 2, 180 mg, geometric mean (CV%)", "value": 1010, "unit": "ng/mL"}, {"measurement": "Cmax", "setting": "[2]; [12]", "value": 3300, "unit": "ng/mL"}, {"measurement": "AUC(0-t)", "setting": "[2]; [12]", "value": 21100, "unit": "ng·h/mL"}, {"measurement": "Cmax", "setting": "[2]; [13]", "value": 953, "unit": "ng/mL"}, {"measurement": "AUC(0-t)", "setting": "[2]; [13]", "value": 6280, "unit": "ng·h/mL"}, {"measurement": "Tmax", "setting": "[2]; human, plasma, oral, Cycle 2 Day 7, co-administered with T, Arm 2, 240 mg, median (min-max)", "value": 1.5, "unit": "h"}, {"measurement": "effective doses, dose-dependent antitumor activity", "setting": "[3]", "value": "9.1 to 78", "unit": "mg/kg"}, {"measurement": "antitumor activity", "setting": "[4]", "value": "demonstrated antitumor activity"}, {"measurement": "interaction in cell death", "setting": "[5]", "value": "synergy"}, {"measurement": "biologically effective AMG 232 dose in humans", "setting": "[6]; daily", "value": "at least 240 mg"}, {"measurement": "daily dose at which significant increases in serum MIC-1 protein were seen", "setting": "[6]", "value": "higher than 240 mg"}]}
